Experimental data taken from PubChem BioAssay AID1963979 (Molecular Pharmacology Branch, DTP, NCI, 2024).

Tested on: 361931-004-R-J1-PDC multicell spheroid viability
Experiment: Anticancer human tumor 361931-004-R-J1-PDC patient-derived colon adenocarcinoma cell line growth inhibition [PI3K]
Conditions: for IC50: curve of first compound; for viability, T/C: stronger effect = lower value
Summary of the method: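 Stroma-containing spheroids: tumor line, pooled-donor HUVEC, hMSC. Treatments: targeted agents with PI3K inhibitors. Dosing: clinically relevant, half-log spacing, 10 microM ceiling without known Cmax. Read-out: cell viability.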

[1] = second compound 0.0316 µM, first compound 0.0316 µM
[2] = second compound 0.0316 µM, first compound 0.1 µM
[3] = second compound 0.0316 µM, first compound 0.316 µM
[4] = second compound 0.0316 µM, first compound 1 µM
[5] = second compound 0.0316 µM, first compound 3.16 µM
[6] = second compound 0.0316 µM, first compound 10 µM
[7] = second compound 0.1 µM, first compound 0.0316 µM
[8] = second compound 0.1 µM, first compound 0.1 µM
[9] = second compound 0.1 µM, first compound 0.316 µM
[10] = second compound 0.1 µM, first compound 1 µM
[11] = second compound 0.1 µM, first compound 3.16 µM
[12] = second compound 0.1 µM, first compound 10 µM
[13] = second compound 0.316 µM, first compound 0.0316 µM
[14] = second compound 0.316 µM, first compound 0.1 µM
[15] = second compound 0.316 µM, first compound 0.316 µM
[16] = second compound 0.316 µM, first compound 1 µM
[17] = second compound 0.316 µM, first compound 3.16 µM
[18] = second compound 0.316 µM, first compound 10 µM
[19] = second compound 1 µM, first compound 0.0316 µM
[20] = second compound 1 µM, first compound 0.1 µM
[21] = second compound 1 µM, first compound 0.316 µM
[22] = second compound 1 µM, first compound 1 µM
[23] = second compound 1 µM, first compound 3.16 µM
[24] = second compound 1 µM, first compound 10 µM
[25] = second compound 3.16 µM, first compound 0.0316 µM
[26] = second compound 3.16 µM, first compound 0.1 µM
[27] = second compound 3.16 µM, first compound 0.316 µM
[28] = second compound 3.16 µM, first compound 1 µM
[29] = second compound 3.16 µM, first compound 3.16 µM
[30] = second compound 3.16 µM, first compound 10 µM
[31] = second compound 10 µM, first compound 0.0316 µM
[32] = second compound 10 µM, first compound 0.1 µM
[33] = second compound 10 µM, first compound 0.316 µM
[34] = second compound 10 µM, first compound 1 µM
[35] = second compound 10 µM, first compound 3.16 µM
[36] = second compound 10 µM, first compound 10 µM
[37] = second compound 0.00316 µM, first compound 0.0316 µM
[38] = second compound 0.00316 µM, first compound 0.1 µM
[39] = second compound 0.01 µM, first compound 0.0316 µM
[40] = second compound 0.01 µM, first compound 0.1 µM
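Also: spheroids exposed to agents for seven days before readout.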

C=CC(=O)N1CCN(c2nc(=O)n(-c3c(C)ccnc3C(C)C)c3nc(-c4c(O)cccc4F)c(F)cc23)C(C)C1 (stereo not drawn) + Cc1nc(NC(=O)N2CCCC2C(N)=O)sc1-c1ccnc(C(C)(C)C(F)(F)F)c1
IC50 (second compound 0.0316 µM): > 10000 nM
IC50 (second compound 0.1 µM): > 10000 nM
IC50 (second compound 0.316 µM): > 10000 nM
IC50 (second compound 1 µM): > 10000 nM
IC50 (second compound 3.16 µM): > 10000 nM
IC50 (second compound 10 µM): > 10000 nM
viability, T/C [1]: 91%
viability, T/C [2]: 102%
viability, T/C [3]: 87.7%
viability, T/C [4]: 96.5%
viability, T/C [5]: 93.3%
viability, T/C [6]: 73.9%
viability, T/C [7]: 91.8%
viability, T/C [8]: 96.8%
viability, T/C [9]: 98.6%
viability, T/C [10]: 99%
viability, T/C [11]: 97.4%
viability, T/C [12]: 61.7%
viability, T/C [13]: 96.6%
viability, T/C [14]: 96.7%
viability, T/C [15]: 99.5%
viability, T/C [16]: 85.2%
viability, T/C [17]: 96.3%
viability, T/C [18]: 73.5%
viability, T/C [19]: 90.2%
viability, T/C [20]: 83.4%
viability, T/C [21]: 80.5%
viability, T/C [22]: 73.6%
viability, T/C [23]: 80.8%
viability, T/C [24]: 63%
viability, T/C [25]: 74.9%
viability, T/C [26]: 85.6%
viability, T/C [27]: 67%
viability, T/C [28]: 69.9%
viability, T/C [29]: 72.8%
viability, T/C [30]: 55.5%
viability, T/C [31]: 58.4%
viability, T/C [32]: 61.2%
viability, T/C [33]: 56.9%
viability, T/C [34]: 68.3%
viability, T/C [35]: 57.8%
viability, T/C [36]: 40%

Cn1nccc1Nc1nccc(-c2ccn(C(CO)c3ccc(Cl)c(F)c3)c(=O)c2)n1 (stereo not drawn) + Cc1nc(NC(=O)N2CCCC2C(N)=O)sc1-c1ccnc(C(C)(C)C(F)(F)F)c1
IC50 (second compound 0.0316 µM): 9920 nM
IC50 (second compound 0.1 µM): 7970 nM
IC50 (second compound 0.316 µM): 6310 nM
IC50 (second compound 1 µM): 3140 nM
IC50 (second compound 3.16 µM): 1190 nM
IC50 (second compound 10 µM): 213 nM
viability, T/C [1]: 106%
viability, T/C [2]: 101%
viability, T/C [3]: 90.4%
viability, T/C [4]: 94.5%
viability, T/C [5]: 85.9%
viability, T/C [6]: 49.2%
viability, T/C [7]: 108%
viability, T/C [8]: 109%
viability, T/C [9]: 101%
viability, T/C [10]: 89.4%
viability, T/C [11]: 78.8%
viability, T/C [12]: 42.9%
viability, T/C [13]: 112%
viability, T/C [14]: 110%
viability, T/C [15]: 95.5%
viability, T/C [16]: 86.8%
viability, T/C [17]: 69.8%
viability, T/C [18]: 37.3%
viability, T/C [19]: 99.5%
viability, T/C [20]: 99.6%
viability, T/C [21]: 94%
viability, T/C [22]: 83.2%
viability, T/C [23]: 49.4%
viability, T/C [24]: 26.9%
viability, T/C [25]: 91.4%
viability, T/C [26]: 87.2%
viability, T/C [27]: 75.9%
viability, T/C [28]: 56.6%
viability, T/C [29]: 24%
viability, T/C [30]: 10.4%
viability, T/C [31]: 80%
viability, T/C [32]: 63.5%
viability, T/C [33]: 43.6%
viability, T/C [34]: 19%
viability, T/C [35]: 4.98%
viability, T/C [36]: 2.3%

CC(=O)c1c(C)c2cnc(Nc3ccc(N4CCNCC4)cn3)nc2n(C2CCCC2)c1=O + COc1c(OCCCN2CCOCC2)ccc2c3n(c(=NC(=O)c4cnc(N)nc4)nc12)CCN3
IC50 (second compound 0.00316 µM): > 100 nM
IC50 (second compound 0.01 µM): > 100 nM
IC50 (second compound 0.0316 µM): > 100 nM
IC50 (second compound 0.1 µM): > 100 nM
IC50 (second compound 0.316 µM): < 0.316 nM
IC50 (second compound 1 µM): < 0.316 nM
viability, T/C (second compound 0.00316 µM, first compound 0.000316 µM): 99.6%
viability, T/C (second compound 0.00316 µM, first compound 0.001 µM): 98.4%
viability, T/C (second compound 0.00316 µM, first compound 0.00316 µM): 99.8%
viability, T/C (second compound 0.00316 µM, first compound 0.01 µM): 97%
viability, T/C [37]: 101%
viability, T/C [38]: 89.2%
viability, T/C (second compound 0.01 µM, first compound 0.000316 µM): 101%
viability, T/C (second compound 0.01 µM, first compound 0.001 µM): 98.8%
viability, T/C (second compound 0.01 µM, first compound 0.00316 µM): 103%
viability, T/C (second compound 0.01 µM, first compound 0.01 µM): 91.5%
viability, T/C [39]: 95.4%
viability, T/C [40]: 83.4%
viability, T/C (second compound 0.0316 µM, first compound 0.000316 µM): 93.3%
viability, T/C (second compound 0.0316 µM, first compound 0.001 µM): 89.3%
viability, T/C (second compound 0.0316 µM, first compound 0.00316 µM): 93.3%
viability, T/C (second compound 0.0316 µM, first compound 0.01 µM): 87.4%
viability, T/C [1]: 83.8%
viability, T/C [2]: 62.9%
viability, T/C (second compound 0.1 µM, first compound 0.000316 µM): 84.1%
viability, T/C (second compound 0.1 µM, first compound 0.001 µM): 69.7%
viability, T/C (second compound 0.1 µM, first compound 0.00316 µM): 73.7%
viability, T/C (second compound 0.1 µM, first compound 0.01 µM): 72.8%
viability, T/C [7]: 67.9%
viability, T/C [8]: 53.1%
viability, T/C (second compound 0.316 µM, first compound 0.000316 µM): 50.7%
viability, T/C (second compound 0.316 µM, first compound 0.001 µM): 45.7%
viability, T/C (second compound 0.316 µM, first compound 0.00316 µM): 42.3%
viability, T/C (second compound 0.316 µM, first compound 0.01 µM): 41.8%
viability, T/C [13]: 49.6%
viability, T/C [14]: 38.1%
viability, T/C (second compound 1 µM, first compound 0.000316 µM): 23.1%
viability, T/C (second compound 1 µM, first compound 0.001 µM): 17.9%
viability, T/C (second compound 1 µM, first compound 0.00316 µM): 16.4%
viability, T/C (second compound 1 µM, first compound 0.01 µM): 19.7%
viability, T/C [19]: 21%
viability, T/C [20]: 15.2%

CC(C)NCC(C(=O)N1CCN(c2ncnc3c2C(C)CC3O)CC1)c1ccc(Cl)cc1 (stereo not drawn) + COc1c(OCCCN2CCOCC2)ccc2c3n(c(=NC(=O)c4cnc(N)nc4)nc12)CCN3
IC50 (second compound 0.00316 µM): 3300 nM
IC50 (second compound 0.01 µM): 2880 nM
IC50 (second compound 0.0316 µM): 2370 nM
IC50 (second compound 0.1 µM): 1680 nM
IC50 (second compound 0.316 µM): 161 nM
IC50 (second compound 1 µM): < 31.6 nM
viability, T/C [37]: 102%
viability, T/C [38]: 97.8%
viability, T/C (second compound 0.00316 µM, first compound 0.316 µM): 95.2%
viability, T/C (second compound 0.00316 µM, first compound 1 µM): 86.9%
viability, T/C (second compound 0.00316 µM, first compound 3.16 µM): 50.9%
viability, T/C (second compound 0.00316 µM, first compound 10 µM): 19.5%
viability, T/C [39]: 99%
viability, T/C [40]: 100%
viability, T/C (second compound 0.01 µM, first compound 0.316 µM): 90.9%
viability, T/C (second compound 0.01 µM, first compound 1 µM): 78.7%
viability, T/C (second compound 0.01 µM, first compound 3.16 µM): 46.9%
viability, T/C (second compound 0.01 µM, first compound 10 µM): 26.6%
viability, T/C [1]: 95%
viability, T/C [2]: 89.8%
viability, T/C [3]: 94.2%
viability, T/C [4]: 70.6%
viability, T/C [5]: 43.6%
viability, T/C [6]: 25.7%
viability, T/C [7]: 89.9%
viability, T/C [8]: 76.9%
viability, T/C [9]: 71%
viability, T/C [10]: 60.5%
viability, T/C [11]: 39%
viability, T/C [12]: 21.9%
viability, T/C [13]: 58%
viability, T/C [14]: 52.3%
viability, T/C [15]: 47.4%
viability, T/C [16]: 36.8%
viability, T/C [17]: 34.5%
viability, T/C [18]: 21.3%
viability, T/C [19]: 26%
viability, T/C [20]: 21.8%
viability, T/C [21]: 20.8%
viability, T/C [22]: 20.4%
viability, T/C [23]: 17.6%
viability, T/C [24]: 11.6%
